In US11077090B2, “Compounds and compositions and uses thereof” (Sunovion Pharmaceuticals Inc., priority 2016, dated 2021):
Read-outs that look alike come from different tables or passages of the source.

Tested on: compound-treated mice
Assay: Neuropharmacological assay (SmartCube): behavioral activity signature and minimal effective dose
Type: in vivo
Conditions: for minimal effective dose: Mus musculus, ip, MED = dose having 50% or more total activity; for AD: ADHD (probability of activity signature) / AG: analgesic (probability of activity signature) / AX: anxiolytic (probability of activity signature) / CE: cognitive enhancer (probability of activity signature) / DP: anti-depressant (probability of activity signature) / MS: mood stabilizer (probability of activity signature) / PS: anti-psychotic (probability of activity signature) / SD: sedative hypnotic (probability of activity signature) / UN: uncharacterized CNS activity (probability of activity signature): i.p. 15 min before test, most efficacious dose(s)
Summary of the method: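 Mice dosed i.p. 15 min before test, compound in N-methyl-2-pyrrolidone/PEG/propylene glycol, 3 doses; video-captured behavior matched to reference-drug signatures, giving per-class probabilities at most efficacious dose. MED from doses typically 0.3–30 mpk, defined as lowest dose with ≥50% total activity.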

[1] = read-out: Potency: minimal effective dose (MED)
[2] = read-out: Potency: minimal effective dose (MED), binned

| SMILES | minimal effective dose [1] | AD: ADHD (probability of activity signature) | AG: analgesic (probability of activity signature) | AX: anxiolytic (probability of activity signature) | CE: cognitive enhancer (probability of activity signature) | DP: anti-depressant (probability of activity signature) | MS: mood stabilizer (probability of activity signature) | PS: anti-psychotic (probability of activity signature) | SD: sedative hypnotic (probability of activity signature) | UN: uncharacterized CNS activity (probability of activity signature) | minimal effective dose [2] |
| --- | --- | --- | --- | --- | --- | --- | --- | --- | --- | --- | --- |
| Cc1ccc2c(c1)[C@@H](N)[C@H](C)OC2.Cl (relative stereo) [Example 77, trans-3,6-Dimethylisochroman-4-amine hydrochloride] | < 3 mg/kg | + (LOQ ≤ + <5%) | ++ (5% ≤ ++ <25%) | ++ (5% ≤ ++ <25%) | ++ (5% ≤ ++ <25%) | ++ (5% ≤ ++ <25%) | + (LOQ ≤ + <5%) | ++ (5% ≤ ++ <25%) | + (LOQ ≤ + <5%) | +++ (25% ≤ +++ <50%) |  |
| Cc1ccc2c(c1C)[C@@H](N)COC2 [Example 136] | 3 to 10 mg/kg | + (LOQ ≤ + <5%) | ++ (5% ≤ ++ <25%) | ++ (5% ≤ ++ <25%) | ++ (5% ≤ ++ <25%) | ++ (5% ≤ ++ <25%) | + (LOQ ≤ + <5%) | ++ (5% ≤ ++ <25%) | + (LOQ ≤ + <5%) | +++ (25% ≤ +++ <50%) |  |
| CCCN[C@H]1COCc2ccccc21.Cl [Example 265] |  | + (LOQ ≤ + <5%) | + (LOQ ≤ + <5%) | + (LOQ ≤ + <5%) | + (LOQ ≤ + <5%) | ++ (5% ≤ ++ <25%) | + (LOQ ≤ + <5%) | + (LOQ ≤ + <5%) | ++ (5% ≤ ++ <25%) | + (LOQ ≤ + <5%) | 3 to 10 mg/kg |
| C[C@@H]1OCc2ccccc2[C@@H]1N.Cl (relative stereo) [Example 72, cis-3-methylisochroman-4-amine hydrochloride] | 3 to 10 mg/kg | + (LOQ ≤ + <5%) | ++ (5% ≤ ++ <25%) | ++ (5% ≤ ++ <25%) | ++ (5% ≤ ++ <25%) | ++ (5% ≤ ++ <25%) | + (LOQ ≤ + <5%) | ++ (5% ≤ ++ <25%) | ++ (5% ≤ ++ <25%) | +++ (25% ≤ +++ <50%) |  |
| Cc1cccc2c1COC[C@@H]2N (single isomer, unassigned) [Example 130] | 3 to 10 mg/kg | + (LOQ ≤ + <5%) | ++ (5% ≤ ++ <25%) | ++ (5% ≤ ++ <25%) | ++ (5% ≤ ++ <25%) | ++ (5% ≤ ++ <25%) | + (LOQ ≤ + <5%) | +++ (25% ≤ +++ <50%) | ++ (5% ≤ ++ <25%) | ++++ (50% ≤ ++++) |  |
| Cc1cccc2c1[C@H](N)[C@H](C)OC2 (single isomer, unassigned) [Example 169] |  | + (LOQ ≤ + <5%) | ++ (5% ≤ ++ <25%) | ++ (5% ≤ ++ <25%) | ++ (5% ≤ ++ <25%) | ++ (5% ≤ ++ <25%) | + (LOQ ≤ + <5%) | ++ (5% ≤ ++ <25%) | ++ (5% ≤ ++ <25%) | ++++ (50% ≤ ++++) | < 3 mg/kg |
| CC(C)C[C@H]1OCc2ccccc2[C@@H]1N [Example 224] |  | + (LOQ ≤ + <5%) | ++ (5% ≤ ++ <25%) | ++ (5% ≤ ++ <25%) | +++ (25% ≤ +++ <50%) | + (LOQ ≤ + <5%) | + (LOQ ≤ + <5%) | + (LOQ ≤ + <5%) | ++ (5% ≤ ++ <25%) | ++ (5% ≤ ++ <25%) | 10 to 30 mg/kg |
| Cc1ccc2c(c1)[C@H](N)CO[C@H]2C.Cl [Example 107] | 3 to 10 mg/kg | + (LOQ ≤ + <5%) | ++ (5% ≤ ++ <25%) | ++ (5% ≤ ++ <25%) | ++ (5% ≤ ++ <25%) | + (LOQ ≤ + <5%) | + (LOQ ≤ + <5%) | ++ (5% ≤ ++ <25%) | + (LOQ ≤ + <5%) | +++ (25% ≤ +++ <50%) |  |
| CC(C)(C)c1ccc2c(c1)C(N)COC2.Cl (stereo not drawn) [Example 11] | 10 to 30 mg/kg | + (LOQ ≤ + <5%) | + (LOQ ≤ + <5%) | + (LOQ ≤ + <5%) | ++ (5% ≤ ++ <25%) | ++ (5% ≤ ++ <25%) | + (LOQ ≤ + <5%) | + (LOQ ≤ + <5%) | ++ (5% ≤ ++ <25%) | + (LOQ ≤ + <5%) |  |
| CC[C@@H]1OCc2ccc(C)cc2[C@@H]1N (single isomer, unassigned) [Example 179] |  | + (LOQ ≤ + <5%) | + (LOQ ≤ + <5%) | ++ (5% ≤ ++ <25%) | ++ (5% ≤ ++ <25%) | +++ (25% ≤ +++ <50%) | + (LOQ ≤ + <5%) | ++ (5% ≤ ++ <25%) | + (LOQ ≤ + <5%) | ++++ (50% ≤ ++++) | < 3 mg/kg |
| CN[C@@H]1COCc2cccc(C)c21 (single isomer, unassigned) [Example 137] | 3 to 10 mg/kg | + (LOQ ≤ + <5%) | ++ (5% ≤ ++ <25%) | ++ (5% ≤ ++ <25%) | ++ (5% ≤ ++ <25%) | + (LOQ ≤ + <5%) | + (LOQ ≤ + <5%) | ++ (5% ≤ ++ <25%) | + (LOQ ≤ + <5%) | +++ (25% ≤ +++ <50%) |  |
| CCc1ccc2c(c1)C(N)COC2.Cl (stereo not drawn) [Example 20, 6-Ethylisochroman-4-amine hydrochloride] | 3 to 10 mg/kg | + (LOQ ≤ + <5%) | ++ (5% ≤ ++ <25%) | +++ (25% ≤ +++ <50%) | ++ (5% ≤ ++ <25%) | ++ (5% ≤ ++ <25%) | + (LOQ ≤ + <5%) | +++ (25% ≤ +++ <50%) | ++ (5% ≤ ++ <25%) | ++ (5% ≤ ++ <25%) |  |
| C[C@H]1OCc2ccccc2[C@@H]1N (single isomer, unassigned) [Example 151] | 3 to 10 mg/kg | + (LOQ ≤ + <5%) | ++ (5% ≤ ++ <25%) | +++ (25% ≤ +++ <50%) | ++ (5% ≤ ++ <25%) | ++ (5% ≤ ++ <25%) | + (LOQ ≤ + <5%) | ++ (5% ≤ ++ <25%) | ++ (5% ≤ ++ <25%) | ++ (5% ≤ ++ <25%) |  |
| Cc1ccc(Cl)c2c1[C@@H](N)COC2 (single isomer, unassigned) [Example 176] |  | + (LOQ ≤ + <5%) | + (LOQ ≤ + <5%) | ++ (5% ≤ ++ <25%) | ++ (5% ≤ ++ <25%) | ++ (5% ≤ ++ <25%) | + (LOQ ≤ + <5%) | ++ (5% ≤ ++ <25%) | + (LOQ ≤ + <5%) | ++++ (50% ≤ ++++) | 3 to 10 mg/kg |
| C[C@H]1OCc2ccccc2[C@H]1N (single isomer, unassigned) [Example 154] | 3 to 10 mg/kg | + (LOQ ≤ + <5%) | ++ (5% ≤ ++ <25%) | ++ (5% ≤ ++ <25%) | ++ (5% ≤ ++ <25%) | + (LOQ ≤ + <5%) | + (LOQ ≤ + <5%) | ++ (5% ≤ ++ <25%) | ++ (5% ≤ ++ <25%) | ++++ (50% ≤ ++++) |  |
